Ki data for 1 molecule are collected here from patent US20100137446A1, “NAPHTHALENE COMPOUNDS, A PROCESS FOR THEIR PREPARATION AND PHARMACEUTICAL COMPOSITIONS CONTAINING THEM” (priority 2007, published 2010).

In assay [1] the target is T1, MT2 receptor (Homo sapiens, UniProt P49286).
T1 sequence (P49286 1-362): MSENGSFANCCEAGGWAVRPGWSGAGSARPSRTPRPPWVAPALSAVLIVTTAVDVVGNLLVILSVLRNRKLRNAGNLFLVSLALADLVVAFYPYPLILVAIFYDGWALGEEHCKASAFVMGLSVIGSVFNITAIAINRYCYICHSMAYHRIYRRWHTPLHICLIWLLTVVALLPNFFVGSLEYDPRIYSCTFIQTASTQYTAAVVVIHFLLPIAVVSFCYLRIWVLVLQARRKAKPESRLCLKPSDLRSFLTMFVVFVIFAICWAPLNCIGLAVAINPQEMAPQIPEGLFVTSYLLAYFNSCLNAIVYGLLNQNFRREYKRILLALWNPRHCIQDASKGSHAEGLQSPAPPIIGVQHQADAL
Kind of assay: Melatonin MT2 receptor binding study. To be noted: 2-[125I]-iodomelatonin radioligand. As for the experimental part: (§1) The MT1 or MT2 receptor binding experiments are carried out using 2-[^125I]-iodomelatonin as reference radioligand. The radioactivity retained is determined using a liquid scintillation counter.
(§2) Competitive binding experiments are then carried out in triplicate using the various test compounds. A range of different concentrations is tested for each compound. The results enable the binding affinities of the compounds tested (Ki) to be determined.

Assay [2] concerns the target MT1 receptor (Homo sapiens, UniProt P48039). Kind of assay: Melatonin MT1 receptor binding study. To be noted: 2-[125I]-iodomelatonin radioligand. The procedure:
as §1, §2

Assay [3] concerns the target T2, human 5-HT2C receptor (Homo sapiens, UniProt P28335).
T2 construct: expressed in transfected cells
T2 sequence (P28335 33-458): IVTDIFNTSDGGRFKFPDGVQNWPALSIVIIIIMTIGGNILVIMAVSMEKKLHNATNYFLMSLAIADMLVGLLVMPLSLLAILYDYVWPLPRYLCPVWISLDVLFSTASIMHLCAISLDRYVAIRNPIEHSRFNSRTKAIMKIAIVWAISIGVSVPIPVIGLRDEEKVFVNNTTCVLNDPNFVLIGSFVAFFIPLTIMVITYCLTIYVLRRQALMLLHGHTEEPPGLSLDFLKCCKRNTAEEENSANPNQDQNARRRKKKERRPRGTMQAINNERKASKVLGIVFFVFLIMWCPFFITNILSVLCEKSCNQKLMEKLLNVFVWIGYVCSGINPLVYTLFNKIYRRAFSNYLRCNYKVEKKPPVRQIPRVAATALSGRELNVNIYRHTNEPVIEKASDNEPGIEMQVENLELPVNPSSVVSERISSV
Kind of assay: Serotoninergic 5-HT2C receptor binding study. To be noted: CHO cell membranes, [3H]-mesulergine (1 nM). As for the experimental part:
The affinity of the compounds for the human 5-HT2C receptor is evaluated on membrane preparations from CHO cells stably expressing that receptor.
Incubation is carried out in 50 mM TRIS buffer, pH 7.4, containing 10 mM MgCl2 and
0.1% BSA, in the presence of [^3H]-mesulergine (1 nM) and 25 fmol/ml of receptor. Non-specific binding is determined in the presence of 10 μM mianserin.
The reaction is stopped by the addition of 50 mM TRIS buffer, pH 7.4, followed by a filtration step and 3 successive rinses: the radioactivity bound to the membranes remaining on the filters (GF/B pretreated with 0.1% PEI) is determined by liquid scintillation counting.

Sequence of MT1 receptor (P48039 whole entry): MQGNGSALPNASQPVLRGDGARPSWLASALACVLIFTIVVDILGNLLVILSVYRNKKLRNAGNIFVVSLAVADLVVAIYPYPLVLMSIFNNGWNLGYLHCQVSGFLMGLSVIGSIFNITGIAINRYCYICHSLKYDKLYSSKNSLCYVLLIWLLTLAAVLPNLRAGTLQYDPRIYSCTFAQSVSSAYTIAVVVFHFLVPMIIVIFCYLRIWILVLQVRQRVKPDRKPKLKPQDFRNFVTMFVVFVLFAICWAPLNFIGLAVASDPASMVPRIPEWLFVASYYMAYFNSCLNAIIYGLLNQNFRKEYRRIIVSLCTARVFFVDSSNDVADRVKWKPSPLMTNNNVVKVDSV

As usually defined, the Ki is the dissociation constant of the complex between target and ligand, obtained from inhibition or displacement. As to `COc1ccc2cccc(C(CF)CNC(C)=O)c2c1` (stereo not drawn) [Example 5, N-[3-Fluoro-2-(7-methoxy-1-naphthyl)propyl]acetamide], the Ki in assay [1] is 0.2 nM; in assay [2], 0.1 nM; in assay [3], 6000 nM.
